# Laboratory results: the Kinase Knowledgebase extract (Sharma et al. 2016)
# Molecular target: MAPK14 (UniProt Q16539)
# Experiment: Inhibition of MAPK14 Kinase Activity
# Sequence of MAPK14 (Q16539 whole entry, looked up): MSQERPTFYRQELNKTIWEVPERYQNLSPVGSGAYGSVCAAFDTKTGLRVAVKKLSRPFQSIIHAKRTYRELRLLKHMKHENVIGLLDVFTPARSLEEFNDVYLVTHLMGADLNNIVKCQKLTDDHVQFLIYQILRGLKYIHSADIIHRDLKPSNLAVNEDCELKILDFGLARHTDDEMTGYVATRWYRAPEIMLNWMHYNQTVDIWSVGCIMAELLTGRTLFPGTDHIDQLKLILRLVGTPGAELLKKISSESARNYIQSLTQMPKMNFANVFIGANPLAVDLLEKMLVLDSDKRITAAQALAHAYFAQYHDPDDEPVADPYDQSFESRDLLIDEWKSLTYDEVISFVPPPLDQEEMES
row,Structure (SMILES),IC50 [µM]
1,Cc1ccc(C(=O)Nc2nccs2)cc1-c1ccc(C(=O)Nc2ccccc2CN2CCN(C)CC2)cn1,< 10
2,Cc1c(F)cc(C(=O)NC2CC2)cc1-c1ccc(C(=O)NC(C)CC(C)C)cn1 (configuration not stated),< 10
3,Cc1c(F)cc(C(=O)NC2CC2)cc1-c1ccc(C(=O)NC2CCCC2)cn1,< 10
4,Cc1ccccc1CNC(=O)c1ccc(-c2cc(C(=O)NC3CC3)cc(F)c2C)nc1,< 10
5,Cc1ccc(NC(=O)c2ccoc2)cc1-c1ccc(C(=O)Nc2ccccc2CN2CCN(C)CC2)cn1,< 10
6,Cc1c(F)cc(C(=O)NC2CC2)cc1-c1ccc(C(=O)NCc2c(F)ccc(Cl)c2F)cn1,< 10
7,CCC1CCCN(C(=O)c2ccc(-c3cc(C(=O)NC4CC4)cc(F)c3C)nc2)C1 (configuration not stated),< 10
8,Cc1c(F)cc(C(=O)NC2CC2)cc1-c1ccc(C(=O)NCCC(F)(F)F)cn1,< 10
9,Cc1ccc(C(=O)Nc2nncs2)cc1-c1ccc(C(=O)NCC2CC2)cn1,< 10
10,Cc1c(F)cc(C(=O)NC2CC2)cc1-c1ccc(C(=O)NCc2cccc(F)c2)cn1,< 10
11,Cc1c(F)cc(C(=O)NC2CC2)cc1-c1ccc(C(=O)NCCC(C)(C)C)cn1,< 10
12,Cc1ccc(C(=O)NCC2CC2)cc1-c1ccc(C(=O)NCc2cccc(NS(C)(=O)=O)c2)cn1,< 10
13,Cc1ccc(CNC(=O)c2ccc(-c3cc(C(=O)NC4CC4)cc(F)c3C)nc2)cc1,< 10
14,Cc1c(F)cc(C(=O)NC2CC2)cc1-c1ccc(C(=O)N2CCCC(C)C2)cn1 (configuration not stated),< 10
15,COc1cccc(NC(=O)c2ccc(-c3cc(C(=O)NC4CC4)cc(F)c3C)nc2)c1,< 10
16,COc1cccc(CNC(=O)c2ccc(-c3cc(C(=O)Nc4nccs4)ccc3C)nc2)c1,< 10
17,Cc1c(F)cc(C(=O)NC2CC2)cc1-c1ccc(C(=O)N(C)CC(C)C)cn1,< 10
18,Cc1ccc(NC(=O)c2ccsc2)cc1-c1ccc(C(=O)Nc2ccccc2CN2CCN(C)CC2)cn1,< 10
19,Cc1ccc(CNC(=O)c2ccc(-c3cc(C(=O)NC4CC4)cc(F)c3C)nc2)cc1F,< 10
20,COc1cccc(CNC(=O)c2ccc(-c3cc(C(=O)Nc4nncs4)ccc3C)nc2)c1,< 10
21,Cc1c(F)cc(C(=O)NC2CC2)cc1-c1ccc(C(=O)NCc2cccc(Cl)c2)cn1,< 10
22,Cc1c(F)cc(C(=O)NC2CC2)cc1-c1ccc(C(=O)NCc2ccccc2Cl)cn1,< 10
23,Cc1c(F)cc(C(=O)NC2CC2)cc1-c1ccc(C(=O)NCC2CCC2)cn1,< 10
24,COc1ccc(NC(=O)c2ccc(-c3cc(C(=O)NC4CC4)ccc3C)nc2)cc1,< 10
25,Cc1c(F)cc(C(=O)NC2CC2)cc1-c1ccc(C(=O)NCc2cc(F)cc(F)c2F)cn1,< 10

row,Structure (SMILES),IC50 [µM]
1,Cc1cccc(CNC(=O)c2ccc(-c3cc(C(=O)NC4CC4)cc(F)c3C)nc2)c1,< 10
2,Cc1csc(CCNC(=O)c2ccc(-c3cc(C(=O)NC4CC4)cc(F)c3C)nc2)n1,< 10
3,COCCNC(=O)c1ccc(-c2cc(C(=O)NC3CC3)cc(F)c2C)nc1,< 10
4,CCCC(O)C(C)NC(=O)c1ccc(-c2cc(C(=O)NC3CC3)cc(F)c2C)nc1 (configuration not stated),< 10
5,Cc1c(F)cc(C(=O)NC2CC2)cc1-c1ccc(C(=O)N2CCCCC2C)cn1 (configuration not stated),< 10
6,Cc1ccc(NC(=O)c2ccsc2)cc1-c1ccc(C(=O)NCC2CC2)cn1,< 10
7,CCC1CC1CNC(=O)c1ccc(-c2cc(C(=O)NC3CC3)cc(F)c2C)nc1 (configuration not stated),< 10
8,Cc1ccc(C(=O)NCC2CC2)cc1-c1ccc(C(=O)NCC2CC2)cn1,< 10
9,Cc1c(F)cc(C(=O)NC2CC2)cc1-c1ccc(C(=O)NCc2cccc(F)c2F)cn1,< 10
10,CCCC(C)NC(=O)c1ccc(-c2cc(C(=O)NC3CC3)cc(F)c2C)nc1 (configuration not stated),< 10
11,COc1cccc(CNC(=O)c2ccc(-c3cc(C(=O)NCC4CC4)ccc3C)nc2)c1,< 10
12,Cc1ccc(C(=O)Nc2nncs2)cc1-c1ccc(C(=O)NCc2cccc(NS(C)(=O)=O)c2)cn1,< 10
13,CCC1(C)CCCCN1C(=O)c1ccc(-c2cc(C(=O)NC3CC3)cc(F)c2C)nc1 (configuration not stated),< 10
14,Cc1c(F)cc(C(=O)NC2CC2)cc1-c1ccc(C(=O)NCc2c(F)ccc(F)c2Cl)cn1,< 10
15,C/C=C/C(C)(C)NC(=O)c1ccc(-c2cc(C(=O)NC3CC3)cc(F)c2C)nc1,< 10
16,CCC(C)NC(=O)c1ccc(-c2cc(C(=O)NC3CC3)cc(F)c2C)nc1 (configuration not stated),< 10
17,COc1cccc(CNC(=O)c2ccc(-c3cc(NC(=O)c4ccoc4)ccc3C)nc2)c1,< 10
18,Cc1c(F)cc(C(=O)NC2CC2)cc1-c1ccc(C(=O)N2CCCC(C)(C)C2)cn1,< 10
19,Cc1c(F)cc(C(=O)NC2CC2)cc1-c1ccc(C(=O)NCC(C)C(F)(F)F)cn1 (configuration not stated),< 10
20,Cc1c(F)cc(C(=O)NC2CC2)cc1-c1ccc(C(=O)NC2CCC2)cn1,< 10
21,Cc1c(F)cc(C(=O)NC2CC2)cc1-c1ccc(C(=O)NCc2ccccc2C(F)(F)F)cn1,< 10
22,Cc1c(F)cc(C(=O)NC2CC2)cc1-c1ccc(C(=O)NCc2ccccc2)cn1,< 10
23,Cc1c(F)cc(C(=O)NC2CC2)cc1-c1ccc(C(=O)NCCOC(C)(C)C)cn1,< 10
24,CC(C)=CCNC(=O)c1ccc(-c2cc(C(=O)NC3CC3)cc(F)c2C)nc1,< 10
25,COc1ccc(NC(=O)c2ccc(-c3cc(C(=O)Nc4nncs4)ccc3C)nc2)cc1,< 10

row,Structure (SMILES),IC50 [µM]
1,Cc1ccc(CNC(=O)c2ccc(-c3cc(C(=O)NC4CC4)cc(F)c3C)nc2)o1,< 10
2,Cc1ccc(C(=O)Nc2nccs2)cc1-c1ccc(C(=O)NCC2CC2)cn1,< 10
3,CCCNC(=O)c1ccc(-c2cc(C(=O)NC3CC3)cc(F)c2C)nc1,< 10
4,Cc1ccc(NC(=O)c2ccsc2)cc1-c1ccc(C(=O)NCc2cccc(NS(C)(=O)=O)c2)cn1,< 10
5,CCC1(CC)CN(C(=O)c2ccc(-c3cc(C(=O)NC4CC4)cc(F)c3C)nc2)C1,< 10
6,Cc1ccc(NC(=O)c2ccoc2)cc1-c1ccc(C(=O)NCc2cccc(NS(C)(=O)=O)c2)cn1,< 10
7,Cc1c(F)cc(C(=O)NC2CC2)cc1-c1ccc(C(=O)NCc2cccc(C(F)(F)F)c2)cn1,< 10
8,Cc1c(F)cc(C(=O)NC2CC2)cc1-c1ccc(C(=O)N(C)C2CCCC2)cn1,< 10
9,Cc1ccc(CNC(=O)c2ccc(-c3cc(C(=O)NC4CC4)cc(F)c3C)nc2)c(F)c1F,< 10
10,Cc1c(F)cc(C(=O)NC2CC2)cc1-c1ccc(C(=O)NCc2ccc(F)c(F)c2F)cn1,< 10
11,Cc1ccc(C(=O)NC2CC2)cc1-c1ccc(C(=O)Nc2ccccc2CN2CCN(C)CC2)cn1,< 10
12,Cc1c(F)cc(C(=O)NC2CC2)cc1-c1ccc(C(=O)NCCC(C)C)cn1,< 10
13,Cc1ccc(C(=O)NCC2CC2)cc1-c1ccc(C(=O)Nc2ccccc2CN2CCN(C)CC2)cn1,< 10
14,Cc1c(F)cc(C(=O)NC2CC2)cc1-c1ccc(C(=O)NC(C)C2CC2)cn1 (configuration not stated),< 10
15,Cc1c(F)cc(C(=O)NC2CC2)cc1-c1ccc(C(=O)NCc2nccs2)cn1,< 10
16,CCC(C)(C)NC(=O)c1ccc(-c2cc(C(=O)NC3CC3)cc(F)c2C)nc1,< 10
17,Cc1c(F)cc(C(=O)NC2CC2)cc1-c1ccc(C(=O)NCc2cc(F)c(F)c(F)c2)cn1,< 10
18,Cc1c(F)cc(C(=O)NC2CC2)cc1-c1ccc(C(=O)NCc2cc(Cl)ccc2F)cn1,< 10
19,CCCC1CCCCN1C(=O)c1ccc(-c2cc(C(=O)NC3CC3)cc(F)c2C)nc1 (configuration not stated),< 10
20,Cc1c(F)cc(C(=O)NC2CC2)cc1-c1ccc(C(=O)NCc2cccc(Cl)c2F)cn1,< 10
21,Cc1ccc(NC(=O)c2ccnc(N3CCCC3)c2)cc1-c1ccc(C(=O)NCC2CC2)cn1,< 10
22,Cc1ccc(NC(=O)c2ccc(-c3cc(C(=O)NC4CC4)cc(F)c3C)nc2)cc1,< 10
23,Cc1c(F)cc(C(=O)NC2CC2)cc1-c1ccc(C(=O)NCCc2nccs2)cn1,< 10
24,Cc1c(F)cc(C(=O)NC2CC2)cc1-c1ccc(C(=O)NCC(F)c2ccccc2)cn1 (configuration not stated),< 10
25,Cc1ccsc1CNC(=O)c1ccc(-c2cc(C(=O)NC3CC3)cc(F)c2C)nc1,< 10

row,Structure (SMILES),IC50 [µM]
1,Cc1ccc(F)cc1CNC(=O)c1ccc(-c2cc(C(=O)NC3CC3)cc(F)c2C)nc1,< 10
2,Cc1c(F)cc(C(=O)NC2CC2)cc1-c1ccc(C(=O)NCc2ccc(C(F)(F)F)cc2)cn1,< 10
3,Cc1c(F)cc(C(=O)NC2CC2)cc1-c1ccc(C(=O)N(C)C(C)C)cn1,< 10
4,Cc1c(F)cc(C(=O)NC2CC2)cc1-c1ccc(C(=O)NCc2ccc(F)c(F)c2)cn1,< 10
5,Cc1c(F)cc(C(=O)NC2CC2)cc1-c1ccc(C(=O)NC2CC2(C)C)cn1 (configuration not stated),< 10
6,Cc1c(F)cc(C(=O)NC2CC2)cc1-c1ccc(C(=O)NCc2ccc(Cl)cc2)cn1,< 10
7,Cc1c(F)cc(C(=O)NC2CC2)cc1-c1ccc(C(=O)NCc2ccc(Cl)cc2F)cn1,< 10
8,COc1ccc(NC(=O)c2ccc(-c3cc(C(=O)Nc4nccs4)ccc3C)nc2)cc1,< 10
9,CCNC(=O)c1ccc(-c2cc(C(=O)NC3CC3)cc(F)c2C)nc1,< 10
10,Cc1ccc(C(=O)Nc2nccs2)cc1-c1ccc(C(=O)NCc2cccc(NS(C)(=O)=O)c2)cn1,< 10
11,Cc1c(F)cc(C(=O)NC2CC2)cc1-c1ccc(C(=O)N2CCC(C)C2(C)C)cn1 (configuration not stated),< 10
12,CCC1CCCCN1C(=O)c1ccc(-c2cc(C(=O)NC3CC3)cc(F)c2C)nc1 (configuration not stated),< 10
13,Cc1c(F)cc(C(=O)NC2CC2)cc1-c1ccc(C(=O)NCc2ccc(F)cc2)cn1,< 10
14,Cc1ccc(NC(=O)c2ccoc2)cc1-c1ccc(C(=O)NCC2CC2)cn1,< 10
15,CCN(C(=O)c1ccc(-c2cc(C(=O)NC3CC3)cc(F)c2C)nc1)C1CCCCC1,< 10
16,Cc1c(F)cc(C(=O)NC2CC2)cc1-c1ccc(C(=O)N2CCC(C)CC2C)cn1 (configuration not stated),< 10
17,Cc1c(F)cc(C(=O)NC2CC2)cc1-c1ccc(C(=O)N2CCCC(C)C2C)cn1 (configuration not stated),< 10
18,Cc1c(F)cc(C(=O)NC2CC2)cc1-c1ccc(C(=O)N(C)C2(C)CCCC2)cn1,< 10
19,COc1cccc(CNC(=O)c2ccc(-c3cc(NC(=O)c4ccsc4)ccc3C)nc2)c1,< 10
20,Cc1c(F)cc(C(=O)NC2CC2)cc1-c1ccc(C(=O)N(C)CCC2CCCC2)cn1,< 10
21,COc1ccc(NC(=O)c2ccc(-c3cc(NC(=O)c4ccoc4)ccc3C)nc2)cc1,< 10
22,Cc1c(F)cc(C(=O)NC2CC2)cc1-c1ccc(C(=O)NCc2cc(F)ccc2F)cn1,< 10
